Tests used:
[1] = target: Aldo-keto reductase family 1 member B1 (Rattus norvegicus) (UniProt P07943); test: Inhibition of rat lens aldose reductase at 0.1 uM
[2] = target: Aldo-keto reductase family 1 member B1 (Rattus norvegicus) (UniProt P07943); test: Inhibition of rat lens aldose reductase at 10 uM
[3] = target: Aldo-keto reductase family 1 member B1 (Rattus norvegicus) (UniProt P07943); test: Inhibition of rat lens aldose reductase at 1 uM

| Compound | inhibition [1] | inhibition [2] | inhibition [3] |
| --- | --- | --- | --- |
| COc1c(O)cc2oc(-c3ccc(O)c(O)c3)c(O[C@@H]3O[C@H](CO[C@@H]4O[C@@H](C)[C@H](O)[C@@H](O)[C@H]4O)[C@H](O)[C@H](O)[C@H]3O)c(=O)c2c1O | 86% | 11% | 33% |
| COc1c(O)cc2oc(-c3ccc(O)cc3)c(O[C@@H]3O[C@H](CO[C@@H]4O[C@@H](C)[C@H](O)[C@@H](O)[C@H]4O)[C@H](O)[C@H](O)[C@H]3O)c(=O)c2c1O | 63% | 9% | 32% |
| O=C(O)CN1C(=O)c2cccc3cccc(c23)C1=O |  | 0% | 40% |
| COc1c(O)cc2oc(-c3ccc(O)c(O)c3)c(O[C@@H]3O[C@H](CO)[C@H](O)[C@H](O)[C@H]3O)c(=O)c2c1O | 84% | 7% | 38% |

— ChEMBL document CHEMBL1151299, “Flavonoids with anti-cataract activity from Brickellia arguta” (J Nat Prod, 1984)
